One assay deals with T1, human BACE2 (Homo sapiens, UniProt Q9Y5Z0).
T1 sequence (Q9Y5Z0 63-518): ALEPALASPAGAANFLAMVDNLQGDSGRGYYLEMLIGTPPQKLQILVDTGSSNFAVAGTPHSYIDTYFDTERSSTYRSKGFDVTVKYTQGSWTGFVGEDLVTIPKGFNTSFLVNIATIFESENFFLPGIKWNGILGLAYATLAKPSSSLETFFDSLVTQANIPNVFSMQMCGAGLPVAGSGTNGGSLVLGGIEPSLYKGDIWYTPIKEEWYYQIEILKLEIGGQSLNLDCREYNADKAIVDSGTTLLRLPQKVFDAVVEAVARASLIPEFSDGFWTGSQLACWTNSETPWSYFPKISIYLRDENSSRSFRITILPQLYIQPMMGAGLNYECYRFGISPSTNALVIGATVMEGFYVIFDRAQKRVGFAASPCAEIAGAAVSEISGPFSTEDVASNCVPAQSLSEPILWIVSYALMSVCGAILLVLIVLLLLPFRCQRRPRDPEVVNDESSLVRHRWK
Briefly: Fluorescent Kinetic Assay for Human Recombinant BACE 2 (selectivity BACE1/BACE2).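 Further: cleavage rate from the linear slope of fluorescence (excitation 320 nm, emission 420 nm) recorded every 40 s over 30 min at room temperature, sodium acetate buffer with 0.05% CHAPS.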 Conditions: selectivity BACE1 over BACE2; 1.5 nM human BACE2, 25 μM substrate, pH 4.5. It counts as biochemical.

The target of another assay is human BACE1 (Homo sapiens, UniProt P56817). Briefly: Fluorescent kinetic assay, inhibition of BACE1 (WABC-6 peptide substrate).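 Further: fluorescence monitored at 320 nm excitation and 420 nm emission every 40 s over 30 min, with the substrate cleavage rate taken from the linear slope.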 It counts as biochemical. Conditions: 10 nM enzyme, 25 μM substrate WABC-6, pH 4.5, room temperature; read-out: IC50 (μM) BACE1.
human BACE1, sequence (P56817 46-501): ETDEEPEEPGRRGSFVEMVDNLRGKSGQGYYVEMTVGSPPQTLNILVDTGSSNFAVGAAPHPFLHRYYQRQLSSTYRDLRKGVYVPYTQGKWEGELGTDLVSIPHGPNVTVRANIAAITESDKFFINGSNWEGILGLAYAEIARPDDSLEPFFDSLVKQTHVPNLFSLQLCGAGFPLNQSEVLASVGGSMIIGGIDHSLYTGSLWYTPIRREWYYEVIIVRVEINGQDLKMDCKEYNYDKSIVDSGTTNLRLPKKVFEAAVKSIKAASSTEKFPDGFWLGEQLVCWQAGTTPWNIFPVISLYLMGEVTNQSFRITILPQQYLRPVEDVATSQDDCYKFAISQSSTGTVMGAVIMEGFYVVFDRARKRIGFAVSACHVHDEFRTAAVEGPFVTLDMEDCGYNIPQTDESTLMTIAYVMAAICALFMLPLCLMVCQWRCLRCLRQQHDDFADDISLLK

The term IC50 denotes the concentration at which inhibition is half-maximal. Regarding `CN1C(=O)C(c2ccc(OC(F)F)cc2)(c2cccc(-c3ccc(F)nc3)c2)N=C1N` (stereo not shown) [Example 90], the BACE1/BACE2 selectivity entry at human BACE2 is recorded as “II (II = 10-100-fold selectivity)”. Besides, the IC50 on human BACE1 lay in the range of 0.01 to 0.1 µM.

In the case of `CN1C(=O)C(c2ccc(OC(F)F)cc2)(c2cccc(-c3cc(F)cnc3F)c2)N=C1N` (stereo not shown) [Example 91], the BACE1/BACE2 selectivity entry on human BACE2 is listed as “II (II = 10-100-fold selectivity)”. Further, the IC50 on human BACE1 is 0.01 to 0.1 µM.

Regarding `CN1C(=O)C(c2ccc(OC(F)F)cc2)(c2ccc(F)c(-c3cc(F)cnc3F)c2)N=C1N` (stereo not shown) [Example 92], the BACE1/BACE2 selectivity result on human BACE2 is “II (II = 10-100-fold selectivity)”. The IC50 on human BACE1 is 0.01 to 0.1 µM.

Take `CN1C(=O)C(c2ccc(OC(F)(F)F)cc2)(c2ccc(F)c(-c3cnn(C)c3)c2)N=C1N` (stereo not shown) [Example 100, 2-Amino-5-[4-fluoro-3-(1-methyl-1H-pyrazol-4-yl)phenyl]3-methyl-5-[4-(trifluoromethoxy)phenyl]-3,5-dihydro-4H-imidazol-4-one]: the BACE1/BACE2 selectivity result on human BACE2 is given as “III (III = <10-fold selectivity)”. Also, on human BACE1, the IC50 lay in the range of 0.11 to 1 µM.

For the molecule `CCOc1ccc([C@@]2(c3cccc(-c4cccnc4F)c3)N=C(N)N(C)C2=O)cc1OCC` [Example 103A, (5R)-2-Amino-5-(3,4-diethoxyphenyl)-5-[3-(2-fluoropyridin-3-yl)phenyl]-3-methyl-3,5-dihydro-4H-imidazol-4-one], the BACE1/BACE2 selectivity result at human BACE2 is on record as “III (III = <10-fold selectivity)”. Also, the IC50 at human BACE1 is more than 1 µM.

For `CCOc1ccc([C@]2(c3cccc(-c4cccnc4F)c3)N=C(N)N(C)C2=O)cc1OCC` [Example 103B, (5S)-2-Amino-5-(3,4-diethoxyphenyl)-5-[3-(2-fluoropyridin-3-yl)phenyl]-3-methyl-3,5-dihydro-4H-imidazol-4-one], at human BACE2, the BACE1/BACE2 selectivity result was “II (II = 10-100-fold selectivity)”. Moreover, at human BACE1, the IC50 fell in the range of 0.01 to 0.1 µM.

With `COc1ccc([C@]2(c3ccc(F)c(-c4cncnc4)c3)N=C(N)N(C)C2=O)cc1C(F)(F)F` [Example 107A, (5S)-2-Amino-5-(4-fluoro-3-pyrimidin-5-ylphenyl)-5-[4-methoxy-3-(trifluoromethyl)phenyl]-3-methyl-3,5-dihydro-4H-imidazol-4-one], the BACE1/BACE2 selectivity result on human BACE2 is “I (I = >100-fold selectivity)”. In addition, the IC50 at human BACE1 lay in the range of 0.01 to 0.1 µM.

Consider `COc1ccc([C@@]2(c3ccc(F)c(-c4cncnc4)c3)N=C(N)N(C)C2=O)cc1C(F)(F)F` [Example 107B, (5R)-2-Amino-5-(4-fluoro-3-pyrimidin-5-ylphenyl)-5-[4-methoxy-3-(trifluoromethyl)phenyl]-3-methyl-3,5-dihydro-4H-imidazol-4-one], for which, at human BACE2, the BACE1/BACE2 selectivity entry is recorded as “III (III = <10-fold selectivity)”. Besides, the IC50 at human BACE1 is more than 1 µM.

Consider `CN1C(=O)C(c2ccc(OCCF)cc2)(c2cccc(-c3cncc(F)c3)c2)N=C1N` (stereo not shown) [Example 110], for which the BACE1/BACE2 selectivity entry at human BACE2 was “II (II = 10-100-fold selectivity)”. In addition, the IC50 at human BACE1 was in the range of 0.01 to 0.1 µM.

As to `Cc1cc(C2(c3cccc(-c4cncnc4)c3)N=C(N)N(C)C2=O)ccc1OCCC1CCCCC1` (stereo not shown) [Example 123], the BACE1/BACE2 selectivity result on human BACE2 is given as “II (II = 10-100-fold selectivity)”. Further, at human BACE1, the IC50 lay in the range of 0.11 to 1 µM.

For `NC1=NC(c2ccc(OC(F)(F)F)cc2)(c2ccc(F)c(-c3cncnc3)c2)C(=O)N1CCF` (stereo not shown) [Example 126], at human BACE2, the BACE1/BACE2 selectivity entry is listed as “I (I = >100-fold selectivity)”. Further, the IC50 on human BACE1 was 0.11 to 1 µM.

With `NC1=NC(c2ccc(OC(F)(F)F)cc2)(c2ccc(F)c(-c3cccnc3F)c2)C(=O)N1CCF` (stereo not shown) [Example 127], the BACE1/BACE2 selectivity result on human BACE2 was “I (I = >100-fold selectivity)”. Besides, the IC50 at human BACE1 is 0.11 to 1 µM.

As for `CCN1C(=O)C(c2ccc(OC(F)F)cc2)(c2ccc(F)c(-c3cncc(F)c3)c2)N=C1N` (stereo not shown) [Example 128], at human BACE2, the BACE1/BACE2 selectivity entry was “II (II = 10-100-fold selectivity)”. For the same molecule, on human BACE1, the IC50 fell in the range of 0.11 to 1 µM.

As to `CN1C(=O)[C@](c2ccc(OC(F)F)cc2)(c2ccc(F)c(-c3cccnc3F)c2)N=C1N` [Example 133A, (5S)-2-Amino-5-[4-(difluoromethoxy)phenyl]-5-[4-fluoro-3-(2-fluoropyridin-3-yl)phenyl]-3-methyl-3,5-dihydro-4H-imidazol-4-one], at human BACE2, the BACE1/BACE2 selectivity result was “III (III = <10-fold selectivity)”. In addition, on human BACE1, the IC50 lay in the range of 0.11 to 1 µM.

On to `CN1C(=O)[C@@](c2ccc(OC(F)F)cc2)(c2ccc(F)c(-c3cccnc3F)c2)N=C1N` [Example 133B, (5R)-2-Amino-5-[4-(difluoromethoxy)phenyl]-5-[4-fluoro-3-(2-fluoropyridin-3-yl)phenyl]-3-methyl-3,5-dihydro-4H-imidazol-4-one], for which the BACE1/BACE2 selectivity entry at human BACE2 is recorded as “II (II = 10-100-fold selectivity)”. At human BACE1, the IC50 was in the range of 0.01 to 0.1 µM.

For `CN1C(=O)[C@](c2ccc(OC(F)F)cc2)(c2ccc(F)c(-c3ccc(F)nc3)c2)N=C1N` [Example 134A, (5S)-2-Amino-5-[4-(difluoromethoxy)phenyl]-5-[4-fluoro-3-(6-fluoropyridin-3-yl)phenyl]-3-methyl-3,5-dihydro-4H-imidazol-4-one], at human BACE2, the BACE1/BACE2 selectivity result is listed as “III (III = <10-fold selectivity)”. Besides, the IC50 on human BACE1 lay within 0.11 to 1 µM.

Regarding `CN1C(=O)[C@@](c2ccc(OC(F)F)cc2)(c2ccc(F)c(-c3ccc(F)nc3)c2)N=C1N` [Example 134B, (5R)-2-Amino-5-[4-(difluoromethoxy)phenyl]-5-[4-fluoro-3-(6-fluoropyridin-3-yl)phenyl]-3-methyl-3,5-dihydro-4H-imidazol-4-one], at human BACE2, the BACE1/BACE2 selectivity result is “II (II = 10-100-fold selectivity)”. On human BACE1, the IC50 was 0.01 to 0.1 µM.

Regarding `CN1C(=O)[C@](c2ccc(OC(F)F)cc2)(c2cccc(-c3ccc(F)nc3)c2)N=C1N` [Example 135A, (5S)-2-Amino-5-[4-(difluoromethoxy)phenyl]-5-[3-(6-fluoropyridin-3-yl)phenyl]-3-methyl-3,5-dihydro-4H-imidazol-4-one], the BACE1/BACE2 selectivity result on human BACE2 was “III (III = <10-fold selectivity)”. Besides, the IC50 at human BACE1 was more than 1 µM.

Turning to `CN1C(=O)[C@@](c2ccc(OC(F)F)cc2)(c2cccc(-c3ccc(F)nc3)c2)N=C1N` [Example 135B, (5R)-2-Amino-5-[4-(difluoromethoxy)phenyl]-5-[3-(6-fluoropyridin-3-yl)phenyl]-3-methyl-3,5-dihydro-4H-imidazol-4-one], the BACE1/BACE2 selectivity entry at human BACE2 is on record as “II (II = 10-100-fold selectivity)”. Moreover, at human BACE1, the IC50 fell in the range of 0.01 to 0.1 µM.

With `CCOc1ccc([C@]2(c3ccc(F)c(-c4cccnc4F)c3)N=C(N)N(C)C2=O)cc1OCC` [Example 136A, (5S)-2-Amino-5-(3,4-diethoxyphenyl)-5-[4-fluoro-3-(2-fluoropyridin-3-yl)phenyl]-3-methyl-3,5-dihydro-4H-imidazol-4-one], the BACE1/BACE2 selectivity entry at human BACE2 was “II (II = 10-100-fold selectivity)”. Also, the IC50 at human BACE1 lay within 0.01 to 0.1 µM.

Consider `CN1C(=O)[C@](c2ccc(OC(F)F)cc2)(c2cccc(-c3cc(F)cnc3F)c2)N=C1N` [Example 137A, (5S)-2-Amino-5-[4-(difluoromethoxy)phenyl]-5-[3-(2,5-difluoropyridin-3-yl)phenyl]-3-methyl-3,5-dihydro-4H-imidazol-4-one], for which the BACE1/BACE2 selectivity entry at human BACE2 is recorded as “III (III = <10-fold selectivity)”. Also, the IC50 at human BACE1 was more than 1 µM.

As for `CN1C(=O)[C@@](c2ccc(OC(F)F)cc2)(c2cccc(-c3cc(F)cnc3F)c2)N=C1N` [Example 137B, (5R)-2-Amino-5-[4-(difluoromethoxy)phenyl]-5-[3-(2,5-difluoropyridin-3-yl)phenyl]-3-methyl-3,5-dihydro-4H-imidazol-4-one], the BACE1/BACE2 selectivity result on human BACE2 is “II (II = 10-100-fold selectivity)”. Moreover, on human BACE1, the IC50 was 0.01 to 0.1 µM.

On to `CN1C(=O)[C@](c2ccc(OCCF)cc2)(c2ccc(F)c(-c3cncnc3)c2)N=C1N` [Example 139A, (5S)-2-Amino-5-[4-(2-fluoroethoxy)phenyl]-5-(4-fluoro-3-pyrimidin-5-ylphenyl)-3-methyl-3,5-dihydro-4H-imidazol-4-one], for which the BACE1/BACE2 selectivity result on human BACE2 is “I (I = >100-fold selectivity)”. Besides, at human BACE1, the 50% inhibitory concentration (IC50) lay within 0.01 to 0.1 µM.

Regarding `CN1C(=O)[C@@](c2ccc(OCCF)cc2)(c2ccc(F)c(-c3cncnc3)c2)N=C1N` [Example 139B, (5R)-2-Amino-5-[4-(2-fluoroethoxy)phenyl]-5-(4-fluoro-3-pyrimidin-5-ylphenyl)-3-methyl-3,5-dihydro-4H-imidazol-4-one], the BACE1/BACE2 selectivity entry at human BACE2 is “III (III = <10-fold selectivity)”. At human BACE1, the IC50 fell in the range of 0.11 to 1 µM.

As for `COc1ccc([C@@]2(c3ccc(F)c(-c4cncc(F)c4)c3)N=C(N)N(C)C2=O)cc1` [Example 142A, (5S)-2-Amino-5-[4-fluoro-3-(5-fluoropyridin-3-yl)phenyl]-5-(4-methoxyphenyl)-3-methyl-3,5-dihydro-4H-imidazol-4-one], the BACE1/BACE2 selectivity entry at human BACE2 is recorded as “III (III = <10-fold selectivity)”. Besides, at human BACE1, the IC50 is more than 1 µM.

For the molecule `COc1ccc([C@]2(c3ccc(F)c(-c4cncc(F)c4)c3)N=C(N)N(C)C2=O)cc1` [Example 142B, (5R)-2-Amino-5-[4-fluoro-3-(5-fluoropyridin-3-yl)phenyl]-5-(4-methoxyphenyl)-3-methyl-3,5-dihydro-4H-imidazol-4-one], the BACE1/BACE2 selectivity entry at human BACE2 was “II (II = 10-100-fold selectivity)”. Moreover, at human BACE1, the IC50 lay within 0.01 to 0.1 µM.

Source of the values: patent publication US7700602B2, “Amino-5,5-diphenylimidazolone derivatives for the inhibition of β-secretase” (Wyeth LLC, priority 2004, dated 2010).
